Data taken from PubChem BioAssay AID248 (DTP/NCI, 2004).
Values joined by “and” are separate entries in the source; they are usually repeats but may differ in a detail not shown here. Equal entries are not always repeated. Inconclusive results and toxic doses are left out. Rule as the data show it: active = T/C of 150% or more; inactive = T/C below 125%.

System: L1210 leukemia ip in BDF1 mice, survival T/C
Experiment: NCI In Vivo Anticancer Drug Screen. Data for tumor model L1210 Leukemia (intraperitoneal) in B6D2F1 (BDF1) mice
Settings: endpoint: mean survival time, higher = longer survival
In short: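 Mice bearing the transplanted tumor received compound or vehicle. Survival of the treated group was divided by that of the vehicle-treated control group to give the ratio.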

[1] = dose: 100.0 mg/kg/injection, schedule: Q04DX003 (ip), vehicle: saline
[2] = dose: 200.0 mg/kg/injection, schedule: Q04DX003 (ip), vehicle: saline
[3] = dose: 400.0 mg/kg/injection, schedule: Q04DX003 (ip), vehicle: saline
[4] = dose: 100.0 mg/kg/injection, schedule: Q04DX003 (ip), vehicle: saline with Tween-80
[5] = dose: 200.0 mg/kg/injection, schedule: Q04DX003 (ip), vehicle: saline with Tween-80
[6] = dose: 50.0 mg/kg/injection, schedule: Q01DX001 (ip), vehicle: carboxymethylcellulose (CMC)
[7] = dose: 100.0 mg/kg/injection, schedule: Q01DX001 (ip), vehicle: carboxymethylcellulose (CMC)
[8] = dose: 200.0 mg/kg/injection, schedule: Q01DX001 (ip), vehicle: carboxymethylcellulose (CMC)
[9] = dose: 400.0 mg/kg/injection, schedule: Q01DX001 (ip), vehicle: carboxymethylcellulose (CMC)
[10] = dose: 100.0 mg/kg/injection, schedule: Q01DX009 (ip), vehicle: saline
[11] = dose: 400.0 mg/kg/injection, schedule: Q04DX003 (ip), vehicle: saline with Tween-80
[12] = dose: 100.0 mg/kg/injection, schedule: Q01DX009 (ip), vehicle: Klucel (hydroxypropylcellulose) (HPC)
[13] = dose: 200.0 mg/kg/injection, schedule: Q01DX009 (ip), vehicle: Klucel (hydroxypropylcellulose) (HPC)
[14] = dose: 50.0 mg/kg/injection, schedule: Q01DX009 (ip), vehicle: Klucel (hydroxypropylcellulose) (HPC)
[15] = dose: 100.0 mg/kg/injection, schedule: Q04DX003 (ip), vehicle: Klucel (hydroxypropylcellulose) (HPC)
[16] = dose: 200.0 mg/kg/injection, schedule: Q04DX003 (ip), vehicle: Klucel (hydroxypropylcellulose) (HPC)
[17] = dose: 50.0 mg/kg/injection, schedule: Q01DX009 (ip), vehicle: saline
[18] = dose: 50.0 mg/kg/injection, schedule: Q04DX003 (ip), vehicle: saline
[19] = dose: 200.0 mg/kg/injection, schedule: Q01DX009 (ip), vehicle: saline with Tween-80
[20] = dose: 100.0 mg/kg/injection, schedule: Q04DX002 (ip), vehicle: Klucel (hydroxypropylcellulose) (HPC)
[21] = dose: 200.0 mg/kg/injection, schedule: Q04DX002 (ip), vehicle: Klucel (hydroxypropylcellulose) (HPC)
[22] = dose: 400.0 mg/kg/injection, schedule: Q04DX002 (ip), vehicle: Klucel (hydroxypropylcellulose) (HPC)

Measured: T/C

COC(=O)Cc1cc(=O)c2cc(C)ccc2[nH]1
inactive: dose: 50.0 mg/kg/injection, schedule: Q01DX009 (ip), vehicle: acetone 94 % of control | dose: 100.0 mg/kg/injection, schedule: Q01DX009 (ip), vehicle: acetone 101 % of control | [1] 94 % of control | dose: 200.0 mg/kg/injection, schedule: Q01DX009 (ip), vehicle: acetone 97 % of control | [2] 94 % of control | [3] 94 % of control

CCCCCCC(C(C(C)=O)C(C)=O)C(C(C)=O)C(C)=O
inactive: [4] 91 % of control | [5] 93 % of control

CC12CC3CC1C2C3OC=O (stereo unspecified)
inactive: [6] 90 % of control | [7] 95 % of control | [8] 95 % of control | [9] 101 % of control

COC(=O)c1cc(NC(=O)Nc2ccc(F)c(Cl)c2)cc(C(=O)OC)c1
inactive: [10] 98 % of control | dose: 200.0 mg/kg/injection, schedule: Q01DX009 (ip), vehicle: saline 98 % of control | dose: 400.0 mg/kg/injection, schedule: Q01DX009 (ip), vehicle: saline 102 % of control

COC(=O)C1=CNC=C(C(=O)OC)C1c1ccc(OC)cc1
inactive: [4] 95 % of control | [5] 96 % of control | [11] 95 % of control

O=CNc1ccc2ccccc2c1
inactive: dose: 37.5 mg/kg/injection, schedule: Q04DX003 (ip), vehicle: Klucel (hydroxypropylcellulose) (HPC) 92 % of control | dose: 75.0 mg/kg/injection, schedule: Q04DX003 (ip), vehicle: Klucel (hydroxypropylcellulose) (HPC) 97 % of control | dose: 150.0 mg/kg/injection, schedule: Q04DX003 (ip), vehicle: Klucel (hydroxypropylcellulose) (HPC) 103 % of control

C[n+]1c(/C=C/c2ccc(O)c3ncccc23)[se]c2ccccc21
inactive: [7] 95 % of control | [1] 108 % of control | [8] 100 % of control | [2] 110 % of control | [9] 105 % of control | [3] 105 % of control

CCOC(=O)CNC(=O)Nc1cccc(Cl)c1Cl
inactive: [12] 102 % of control | [13] 98 % of control | dose: 400.0 mg/kg/injection, schedule: Q01DX009 (ip), vehicle: Klucel (hydroxypropylcellulose) (HPC) 98 % of control

CN(C)c1ccc2c(c1)N=[N+]([O-])c1cc(N(C)C)ccc1C2
inactive: dose: 100.0 mg/kg/injection, schedule: Q01DX001 (ip), vehicle: Klucel (hydroxypropylcellulose) (HPC) 97 % of control | dose: 200.0 mg/kg/injection, schedule: Q01DX001 (ip), vehicle: Klucel (hydroxypropylcellulose) (HPC) 97 % of control | dose: 400.0 mg/kg/injection, schedule: Q01DX001 (ip), vehicle: Klucel (hydroxypropylcellulose) (HPC) 89 % of control

CC1(C)C(OC=O)C(C)(C)C1OC=O (stereo unspecified)
inactive: dose: 25.0 mg/kg/injection, schedule: Q01DX009 (ip), vehicle: Klucel (hydroxypropylcellulose) (HPC) 100 % of control | [14] 93 % of control | [12] 94 % of control | [15] 96 % of control | [16] 98 % of control

CC(=O)C1C(=O)N(C)C(=O)N(C)C1=O
inactive: dose: 75.0 mg/kg/injection, schedule: Q01DX001 (ip), vehicle: carboxymethylcellulose (CMC) 97 % of control | dose: 150.0 mg/kg/injection, schedule: Q01DX001 (ip), vehicle: carboxymethylcellulose (CMC) 100 % of control | dose: 300.0 mg/kg/injection, schedule: Q01DX001 (ip), vehicle: carboxymethylcellulose (CMC) 103 % of control

c1ccc2c3c([nH]c2c1)C1CC2CC(C1)CC3C2
inactive: dose: 100.0 mg/kg/injection, schedule: Q04DX003 (ip), vehicle: alcohol 105 % of control | dose: 200.0 mg/kg/injection, schedule: Q04DX003 (ip), vehicle: alcohol 96 % of control | dose: 400.0 mg/kg/injection, schedule: Q04DX003 (ip), vehicle: alcohol 96 % of control

CN(C)C(=S)Oc1ccccn1
inactive: dose: 25.0 mg/kg/injection, schedule: Q04DX003 (ip), vehicle: Klucel (hydroxypropylcellulose) (HPC) 106 % of control | dose: 50.0 mg/kg/injection, schedule: Q04DX003 (ip), vehicle: Klucel (hydroxypropylcellulose) (HPC) 104 % of control | [15] 102 % of control and 105 % of control

CN(C)CCCCc1cn(-c2ccccc2)c2ccccc12
inactive: dose: 12.5 mg/kg/injection, schedule: Q01DX009 (ip), vehicle: saline 100 % of control | dose: 25.0 mg/kg/injection, schedule: Q01DX009 (ip), vehicle: saline 93 % of control | dose: 25.0 mg/kg/injection, schedule: Q04DX003 (ip), vehicle: saline 102 % of control | dose: 30.0 mg/kg/injection, schedule: Q01DX015 (ip), vehicle: saline 86 % of control | [17] 107 % of control | [18] 103 % of control

N#CC1=C(N)CCC(C#N)(c2ccccc2)C1 (stereo unspecified)
inactive: dose: 100.0 mg/kg/injection, schedule: Q01DX009 (ip), vehicle: saline with Tween-80 98 % of control | [19] 91 % of control

Cc1ccccc1C(O)c1ccccc1Cl (stereo unspecified)
inactive: dose: 100.0 mg/kg/injection, schedule: Q01DX001 (ip), vehicle: saline with Tween-80 109 % of control | dose: 200.0 mg/kg/injection, schedule: Q01DX001 (ip), vehicle: saline with Tween-80 102 % of control | dose: 400.0 mg/kg/injection, schedule: Q01DX001 (ip), vehicle: saline with Tween-80 94 % of control

CC(C)CCCC(C)CCCC(C)CCCCC(C)CCCC(C)CCCC(C)C (stereo unspecified)
inactive: [20] 103 % of control | [21] 106 % of control | [22] 109 % of control

CCNc1nc(N)nc(Cl)c1N
inactive: [4] 107 % of control | [5] 100 % of control | [11] 105 % of control

CC(=O)c1ccc(C#N)cc1.[Co+3].[NH2-].[NH2-].[NH2-].[NH2-].[NH2-].[O-][Cl+3]([O-])([O-])O
inactive: dose: 100.0 mg/kg/injection, schedule: Q04DX002 (ip), vehicle: saline 104 % of control | dose: 200.0 mg/kg/injection, schedule: Q04DX002 (ip), vehicle: saline 111 % of control | dose: 400.0 mg/kg/injection, schedule: Q04DX002 (ip), vehicle: saline 108 % of control

O=[N+]([O-])c1ccc(N/N=C2\C3CC(c4ccccc4)C2C(c2ccccc2)=C3c2ccccc2)c([N+](=O)[O-])c1 (stereo unspecified)
inactive: dose: 12.5 mg/kg/injection, schedule: Q01DX009 (ip), vehicle: saline with Tween-80 91 % of control | dose: 25.0 mg/kg/injection, schedule: Q01DX009 (ip), vehicle: saline with Tween-80 88 % of control | dose: 50.0 mg/kg/injection, schedule: Q01DX009 (ip), vehicle: saline with Tween-80 96 % of control | [19] 89 % of control

Cc1[nH]c(=S)sc1C
inactive: [6] 100 % of control | [17] 97 % of control | [18] 92 % of control | [7] 88 % of control | [10] 97 % of control | [1] 101 % of control | [2] 88 % of control

CC1(C)CC(=O)C(N=Nc2ccccc2)=C(O)C1
inactive: [20] 105 % of control | [21] 108 % of control | [22] 94 % of control

COc1ccc(C(=O)CCCC(=O)O)cc1
inactive: [6] 105 % of control | [7] 100 % of control | [8] 111 % of control | [9] 105 % of control

CCCCCCOC(N)=O
inactive: [14] 96 % of control | [12] 96 % of control | [15] 96 % of control | [13] 96 % of control | [16] 96 % of control

CC1CC(C)(C)C/C1=N/Nc1ccc([N+](=O)[O-])cc1[N+](=O)[O-] (stereo unspecified)
inactive: dose: 100.0 mg/kg/injection, schedule: Q04DX002 (ip), vehicle: saline with Tween-80 97 % of control | dose: 200.0 mg/kg/injection, schedule: Q04DX002 (ip), vehicle: saline with Tween-80 94 % of control | dose: 400.0 mg/kg/injection, schedule: Q04DX002 (ip), vehicle: saline with Tween-80 87 % of control

CN(C)C=NCC1CCCO1 (stereo unspecified)
inactive: dose: 100.0 mg/kg/injection, schedule: Q01DX001 (ip), vehicle: saline 97 % of control | dose: 200.0 mg/kg/injection, schedule: Q01DX001 (ip), vehicle: saline 90 % of control | dose: 400.0 mg/kg/injection, schedule: Q01DX001 (ip), vehicle: saline 97 % of control
